In the NIST ThermoML archive (doi:10.1021/je9009283):
± gives the expanded uncertainty stated by the source.

Tests used:
[1] = for Normal melting temperature: Crystal; for Normal melting temperature / Glass transition temperature: DTA; for mass density: 293.1 K, 101.33 kPa, Liquid, Pycnometric method
[2] = Molar enthalpy of transition or fusion; conditions: Crystal; DSC
[3] = refractive index (Na D-line) (dimensionless); conditions: 293.1 K; 101.33 kPa; Liquid; Standard Abbe refractometry

| Compound | Normal melting temperature [1] [°C] | Glass transition temperature [1] [°C] | Molar enthalpy of transition or fusion [2] [kcal/mol] | refractive index [3] | mass density [1] [kg/m3] |
| --- | --- | --- | --- | --- | --- |
| CCCCCCCC[n+]1cc(C)cc(C)c1.[I-] [3,5-dimethyl-1-octylpyridinium iodide] | 82.0 ± 2 | -41.0 ± 2 | 6.08 ± 0.186 | – | – |
| CCCC[n+]1cc(C)cc(C)c1.N#C[S-] [1-butyl-3,5-dimethylpyridinium thiocyanate] | 13.0 ± 2 | -57.0 ± 2 | 3.83 ± 0.134 | – | – |
| CCCC[n+]1cc(C)cc(C)c1C.O=S(=O)([O-])C(F)(F)F | 74.0 ± 2 | – | 5.01 ± 0.16 | – | – |
| CCCCCCCC[n+]1cc(C)cc(C)c1C.[I-] [2,3,5-trimethyl-1-octylpyridinium iodide] | – | -31.0 ± 2 | – | 1.5776 ± 0.0016 | – |
| CCCCCCCC[n+]1cc(C)cc(C)c1.F[B-](F)(F)F [3,5-dimethyl-1-octylpyridinium tetrafluoroborate] | 56.0 ± 2 | – | 6.71 ± 0.201 | – | – |
| CCCCCCCC[n+]1cc(C)cc(C)c1.N#C[N-]C#N [3,5-dimethyl-1-octylpyridinium dicyanamide] | – | -78.0 ± 2 | – | 1.5196 ± 0.0016 | 1000 ± 20 |
| CCCCCCCC[n+]1cc(C)cc(C)c1.O=S(=O)([N-]S(=O)(=O)C(F)(F)F)C(F)(F)F | – | -78.0 ± 2 | – | 1.4526 ± 0.01 | 1280 ± 20 |
| CCCCCCCC[n+]1cc(C)cc(C)c1C.O=S(=O)([O-])C(F)(F)F | – | -56.0 ± 2 | – | – | – |
| CCCCCCCC[n+]1cccc(C)c1C.O=S(=O)([N-]S(=O)(=O)C(F)(F)F)C(F)(F)F | – | -70.0 ± 2 | – | 1.4571 ± 0.01 | 1290 ± 20 |
| CCCCCCCC[n+]1cccc(C)c1C.N#C[S-] [2,3-dimethyl-1-octylpyridinium thiocyanate] | – | -65.0 ± 2 | – | 1.5489 ± 0.0016 | 1020 ± 20 |
| CCCC[n+]1cccc(C)c1C.O=S(=O)([N-]S(=O)(=O)C(F)(F)F)C(F)(F)F | – | -81.0 ± 2 | – | 1.4497 ± 0.0016 | 1370 ± 20 |
| CCCC[n+]1cc(C)cc(C)c1C.O=S(=O)([N-]S(=O)(=O)C(F)(F)F)C(F)(F)F | – | -74.0 ± 2 | – | 1.4583 ± 0.0016 | 1370 ± 20 |
| CCCCCCCC[n+]1cc(CC)ccc1C.N#C[N-]C#N [5-ethyl-2-methyl-1-octylpyridinium dicyanamide] | 53.0 ± 2 | -59.0 ± 2 | – | – | – |
| CCCC[n+]1cc(CC)ccc1C.O=S(=O)([N-]S(=O)(=O)C(F)(F)F)C(F)(F)F | – | -81.0 ± 2 | – | 1.4552 ± 0.0016 | 1370 ± 20 |
| CCCCCCCC[n+]1cc(C)cc(C)c1.N#C[S-] [3,5-dimethyl-1-octylpyridinium thiocyanate] | -38.0 ± 2 | -74.0 ± 2 | 1.53 ± 0.086 | 1.5415 ± 0.0016 | 1000 ± 20 |
| CCCCCCCC[n+]1cc(CC)ccc1C.O=S(=O)([N-]S(=O)(=O)C(F)(F)F)C(F)(F)F | – | -78.0 ± 2 | – | – | 1280 ± 20 |
| CCCCCCCC[n+]1cc(C)cc(C)c1C.O=S(=O)([N-]S(=O)(=O)C(F)(F)F)C(F)(F)F | – | -72.0 ± 2 | – | 1.4617 ± 0.0016 | 1280 ± 20 |
| CCCC[n+]1cc(C)cc(C)c1.O=S(=O)([N-]S(=O)(=O)C(F)(F)F)C(F)(F)F | – | -73.0 ± 2 | – | 1.4559 ± 0.0016 | 1390 ± 20 |
| CCCCCCCC[n+]1cc(CC)ccc1C.[I-] [5-ethyl-2-methyl-1-octylpyridinium iodide] | 87.0 ± 2 | -33.0 ± 2 | 7.38 ± 0.217 | – | – |
| CCCC[n+]1cccc(C)c1C.O=S(=O)([O-])C(F)(F)F | 17.0 ± 2 | -69.0 ± 2 | 4.03 ± 0.139 | 1.4748 ± 0.0016 | 1370 ± 20 |
| CCCCCCCC[n+]1cccc(C)c1C.O=S(=O)([O-])C(F)(F)F | – | -63.0 ± 2 | – | 1.4725 ± 0.0016 | 1180 ± 20 |
| CCCC[n+]1cccc(C)c1C.N#C[N-]C#N [1-butyl-2,3-dimethylpyridinium dicyanamide] | – | -72.0 ± 2 | – | 1.5403 ± 0.0016 | – |
| CCCC[n+]1cc(C)cc(C)c1.N#C[N-]C#N [1-butyl-3,5-dimethylpyridinium dicyanamide] | -1.0 ± 2 | -80.0 ± 2 | 0.92 ± 0.0765 | 1.5278 ± 0.0016 | – |
| CCCC[n+]1cc(C)cc(C)c1.O=S(=O)([O-])C(F)(F)F | 91.0 ± 2 | – | 6.81 ± 0.203 | – | 1390 ± 20 |
| CCCCCCCC[n+]1cc(C)cc(C)c1C.N#C[S-] [2,3,5-trimethyl-1-octylpyridinium thiocyanate] | 20.0 ± 2 | -58.0 ± 2 | 3.5 ± 0.127 | – | – |
| CCCCCCCC[n+]1cc(C)cc(C)c1.O=S(=O)([O-])C(F)(F)F | 76.0 ± 2 | – | 5.93 ± 0.182 | – | – |
